Assay results from US9034856B2, “17-(1′propenyl)-17-3′-oxidoestra-4-en-3-one derivative, use thereof, and medicament containing said derivative” (Bayer Intellectual Property GmbH, priority 2007, dated 2015).
Read-outs that look alike come from different tables or passages of the source.

Columns and labels:
[1] = molecular target: T1, mineralocorticoid receptor (Homo sapiens (Human), UniProt P08235); assay: Mineralocorticoid receptor binding test; settings: reference 3H-aldosterone, Hi5 cytosol
Excerpt: 2. Mineralocorticoid Receptor Binding Test:

androgen receptor [2] = molecular target: T2, androgen receptor (Homo sapiens (Human), UniProt P10275); assay: Androgenic/antiandrogenic action by transactivation test (PC3 reporter cells); format: cell-based; settings: for IC50: 0.05 nM R1881, read-out: Androgen receptor Antagonism IC50; for EC50: read-out: Androgen receptor Agonism EC50
T2 sequence (P10275 whole entry, species assumed): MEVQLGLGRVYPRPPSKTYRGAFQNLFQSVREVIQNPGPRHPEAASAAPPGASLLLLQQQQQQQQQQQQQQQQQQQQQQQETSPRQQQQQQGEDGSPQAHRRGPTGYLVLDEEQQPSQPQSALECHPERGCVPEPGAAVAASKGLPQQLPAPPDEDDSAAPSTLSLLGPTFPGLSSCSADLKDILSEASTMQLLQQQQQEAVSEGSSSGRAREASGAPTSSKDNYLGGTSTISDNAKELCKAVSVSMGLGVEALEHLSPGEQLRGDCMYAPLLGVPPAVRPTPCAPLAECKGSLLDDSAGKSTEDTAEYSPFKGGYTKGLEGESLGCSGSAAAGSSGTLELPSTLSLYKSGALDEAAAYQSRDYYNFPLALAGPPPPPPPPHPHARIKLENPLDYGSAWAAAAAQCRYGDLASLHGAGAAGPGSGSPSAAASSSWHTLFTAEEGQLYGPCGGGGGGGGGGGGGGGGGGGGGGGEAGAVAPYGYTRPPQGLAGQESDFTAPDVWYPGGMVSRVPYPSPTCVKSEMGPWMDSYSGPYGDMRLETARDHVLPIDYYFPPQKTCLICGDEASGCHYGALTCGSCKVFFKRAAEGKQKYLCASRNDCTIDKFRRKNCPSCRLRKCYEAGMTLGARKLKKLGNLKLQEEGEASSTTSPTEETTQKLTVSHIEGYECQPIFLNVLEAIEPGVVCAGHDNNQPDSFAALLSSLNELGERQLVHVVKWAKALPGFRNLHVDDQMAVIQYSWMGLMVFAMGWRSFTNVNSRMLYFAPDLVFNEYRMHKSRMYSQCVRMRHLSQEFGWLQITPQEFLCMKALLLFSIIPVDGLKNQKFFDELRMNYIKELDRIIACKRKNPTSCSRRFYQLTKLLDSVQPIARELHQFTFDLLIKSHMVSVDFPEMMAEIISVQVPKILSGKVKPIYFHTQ
Description: 6. Determination of Androgenic/Antiandrogenic Action by Means of Transactivation Tests:
The androgenic/antiandrogenic action of the test substances was determined as for the transactivation tests described above.
The following modifications were made: In this case reporter cell lines were used (PC3 cells) that express the androgen receptor, and a reporter construct that contains luciferase under the control of a steroid hormone-responsive promoter.
For determination of the antiandrogenic efficacy, 0.05 nM R1881 was added to the cells, in order to achieve almost maximum stimulation of the reporter gene.

progesterone receptor = progesterone receptor (Homo sapiens (Human), UniProt P06401); assay: Progesterone receptor binding test; settings: for Progesterone receptor (PR) Competition factor: CF 1 = affinity of progesterone, CF > 1 lower affinity; for IC50: displacement of 3H-progesterone, cytosol from PR-expressing Hi5 insect cells; for CF PR/CF MR: ratio of competition factors CF(PR) and CF(MR)
Sequence of progesterone receptor (P06401 whole entry, species assumed): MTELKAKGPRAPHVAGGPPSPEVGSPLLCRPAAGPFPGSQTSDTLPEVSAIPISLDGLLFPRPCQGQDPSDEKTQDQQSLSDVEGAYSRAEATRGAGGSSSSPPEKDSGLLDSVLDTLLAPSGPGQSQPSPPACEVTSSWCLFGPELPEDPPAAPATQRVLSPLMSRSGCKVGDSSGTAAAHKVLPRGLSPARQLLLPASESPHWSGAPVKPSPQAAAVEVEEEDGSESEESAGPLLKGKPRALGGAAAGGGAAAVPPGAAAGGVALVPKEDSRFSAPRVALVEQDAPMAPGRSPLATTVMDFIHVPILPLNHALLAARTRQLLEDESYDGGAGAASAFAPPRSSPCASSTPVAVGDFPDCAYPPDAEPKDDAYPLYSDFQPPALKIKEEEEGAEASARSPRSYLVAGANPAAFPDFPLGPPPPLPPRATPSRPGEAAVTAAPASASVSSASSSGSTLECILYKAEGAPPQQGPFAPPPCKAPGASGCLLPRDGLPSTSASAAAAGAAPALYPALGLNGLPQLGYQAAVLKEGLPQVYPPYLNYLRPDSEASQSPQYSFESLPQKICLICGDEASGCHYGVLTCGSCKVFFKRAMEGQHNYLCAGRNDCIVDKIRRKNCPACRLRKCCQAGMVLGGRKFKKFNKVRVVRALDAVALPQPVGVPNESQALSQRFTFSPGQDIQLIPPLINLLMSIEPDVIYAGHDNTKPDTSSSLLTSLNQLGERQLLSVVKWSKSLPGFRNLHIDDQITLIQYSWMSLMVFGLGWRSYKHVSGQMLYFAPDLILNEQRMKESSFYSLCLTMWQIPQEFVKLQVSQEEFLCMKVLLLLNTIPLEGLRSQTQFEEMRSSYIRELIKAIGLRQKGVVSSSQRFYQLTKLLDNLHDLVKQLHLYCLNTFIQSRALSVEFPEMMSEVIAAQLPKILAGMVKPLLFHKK
Description: 1. Progesterone Receptor Binding Test:
Using cytosol from progesterone receptor-expressing insect cells (Hi5), competitive binding to the progesterone receptor was determined from the ability to displace ^3H-progesterone as reference substance from the receptor.

[3] = molecular target: T1, mineralocorticoid receptor; assay: Antimineralocorticoid action by transactivation test (MDCK reporter cells); format: cell-based; settings: for IC50: read-out: Mineralocorticoid receptor Antagonism IC50; for Emax: read-out: Mineralocorticoid receptor Antagonism efficacy; for Mineralocorticoid receptor Antagonism (result in words): cell spans IC50 and efficacy
Description: 5. Determination of Antimineralocorticoid Action by Means of Transactivation Tests:
The antimineralocorticoid activity of the test substances was determined as for the transactivation tests described above.
The following modifications were undertaken: In this case reporter cell lines were used (MDCK cells) that express the human mineralocorticoid receptor, and transiently contain a reporter construct that contains luciferase under the control of a steroid hormone-responsive promoter.

[4] = molecular target: fusion protein from the PR-ligand-binding domain and a Gal4-transactivation domain (Homo sapiens, UniProt P06401); assay: Progestational action by transactivation test (CHO K1 reporter cells); format: cell-based; settings: CHO K1 luciferase reporter, 16 hours incubation; for EC50: read-out: Progesterone receptor Agonism EC50; for Emax: read-out: Progesterone receptor Agonism efficacy
Sequence of fusion protein from the PR-ligand-binding domain and a Gal4-transactivation domain (P06401 679-913): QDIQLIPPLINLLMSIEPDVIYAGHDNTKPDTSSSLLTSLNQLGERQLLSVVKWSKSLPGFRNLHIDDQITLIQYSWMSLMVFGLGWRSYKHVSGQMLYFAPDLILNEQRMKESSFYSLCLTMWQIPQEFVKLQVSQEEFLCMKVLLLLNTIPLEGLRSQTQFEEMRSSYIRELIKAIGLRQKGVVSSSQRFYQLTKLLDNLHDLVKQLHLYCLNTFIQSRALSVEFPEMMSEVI
Description: 4. Determination of Progestational Action by Means of Transactivation Tests:
The test compounds were added eight hours later, and the cells were incubated with the compounds for 16 hours. The tests were carried out in triplicate. At the end of incubation the medium containing the effector was removed and replaced with lysis buffer. After luciferase assay substrate (Promega, #E1501) had been added, the 96-well plates were then put in a microplate luminometer (Pherastar, BMG Labtech), and the luminescence was measured. The IC50 values were evaluated using software for calculating dose-effect relations.

androgen receptor [5] = molecular target: T2, androgen receptor; assay: Androgen receptor binding test; settings: reference 3H-testosterone, Hi5 cytosol; for IC50: read-out: Androgen receptor IC50
Description: Androgen Receptor Binding Test:
The test was carried out as in 1., with the following modifications: cytosol from androgen receptor-expressing insect cells (Hi5) was used, and the reference substance was ^3H-testosterone.

[6] = 0.05 nM R1881, read-out: Androgen receptor Antagonism efficacy
[7] = read-out: Androgen receptor Agonism efficacy
[8] = MDCK reporter cells, 1 nM aldosterone

T1 sequence (P08235 whole entry): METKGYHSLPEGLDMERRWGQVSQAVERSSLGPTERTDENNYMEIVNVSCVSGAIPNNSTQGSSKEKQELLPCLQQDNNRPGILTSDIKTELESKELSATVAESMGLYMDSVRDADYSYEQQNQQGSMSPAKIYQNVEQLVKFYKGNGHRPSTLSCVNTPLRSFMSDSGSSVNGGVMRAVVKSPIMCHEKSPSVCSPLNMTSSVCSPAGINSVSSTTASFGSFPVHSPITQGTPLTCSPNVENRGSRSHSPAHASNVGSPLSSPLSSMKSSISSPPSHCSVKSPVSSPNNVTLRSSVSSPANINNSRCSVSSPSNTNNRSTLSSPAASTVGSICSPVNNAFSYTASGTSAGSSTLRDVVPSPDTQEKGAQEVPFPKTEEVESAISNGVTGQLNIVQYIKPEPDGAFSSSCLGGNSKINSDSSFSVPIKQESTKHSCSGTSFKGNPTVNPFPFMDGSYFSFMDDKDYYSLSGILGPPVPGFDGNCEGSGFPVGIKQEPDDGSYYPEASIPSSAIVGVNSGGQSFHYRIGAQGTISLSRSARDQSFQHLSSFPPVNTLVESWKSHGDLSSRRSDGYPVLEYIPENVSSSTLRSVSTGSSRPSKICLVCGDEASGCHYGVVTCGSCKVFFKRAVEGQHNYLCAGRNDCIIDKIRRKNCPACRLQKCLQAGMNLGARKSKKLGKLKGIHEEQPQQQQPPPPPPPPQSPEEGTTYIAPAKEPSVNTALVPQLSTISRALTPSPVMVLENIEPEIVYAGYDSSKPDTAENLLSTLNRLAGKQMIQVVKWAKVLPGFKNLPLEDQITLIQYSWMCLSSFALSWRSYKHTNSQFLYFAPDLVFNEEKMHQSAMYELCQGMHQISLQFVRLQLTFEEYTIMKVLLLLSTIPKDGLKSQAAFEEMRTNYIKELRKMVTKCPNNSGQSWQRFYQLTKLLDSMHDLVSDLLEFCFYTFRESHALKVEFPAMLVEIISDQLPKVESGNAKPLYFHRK

Row | SMILES | Mineralocorticoid receptor (MR) Competition factor [1] | Emax (androgen receptor [2]; [6]) | Emax (androgen receptor [2]; [7]) | Progesterone receptor (PR) Competition factor (progesterone receptor) | IC50 (progesterone receptor) | IC50 [3, 8] | Emax [3, 8] | EC50 [4] | Emax [4] | IC50 (androgen receptor [2]) | EC50 (androgen receptor [2]) | CF PR/CF MR (progesterone receptor) | Androgen receptor Competition factor (androgen receptor [5]) | Emax ([3]; MDCK) | IC50 (androgen receptor [5]) | Mineralocorticoid receptor Antagonism (result in words) [3, 8]
1 | C[C@]12CC[C@H]3[C@@H](CCC4=CC(=O)CC[C@@H]43)[C@@H]1CC[C@@]21C=CCO1 (stereo in doubt) [Example 1, 17α-(1′-Propenyl)-17β-3′-oxidoestra-4-en-3-one] | 2.6 | 29% | 62.7% | 0.46 | 3 nM | 31 nM | 83% | – | – | – | – | – | – | – | – | –
2 | C[C@]12CC[C@H]3[C@@H](C=CC4=CC(=O)CC[C@@H]43)[C@@H]1CC[C@@]21C=CCO1 (stereo in doubt) [Example 2, 17α-(1′-Propenyl)-17β-3′-oxidoestra-4,6-dien-3-one] | 8.9 | 34.4% | 31.9% | 2.29 | 55.5 nM | 92 nM | 136% | 2.9 nM | 36.4% | – | – | – | – | – | – | –
3 | C[C@]12CC[C@H]3[C@@H](CCC4=CC(=O)CC[C@@H]43)[C@@H]1CC1(CC1)[C@@]21C=CCO1 (stereo in doubt) [Example 6, 16,16-Ethylene-17α-(1′-propenyl)-17β-3′-oxidoestra-4-en-3-one] | 22.9 | 70.1% | 49.7% | 3.41 | 110 nM | 1000 nM | 65.1% | – | – | – | – | – | – | – | – | –
4 | CC[C@]12CC[C@H]3[C@@H](CCC4=CC(=O)CC[C@@H]43)[C@@H]1CC[C@@]21C=CCO1 (stereo in doubt) [Example 7, 18-Methyl-17α-(1′-propenyl)-17β-3′-oxidoestra-4-en-3-one] | 1.6 | 25.4% | 78.3% | 0.19 | 5.3 nM | 5 nM | 87.8% | – | – | 160 nM | 3.7 nM | 0.12 | 0.5 | – | – | –
5 | CC[C@]12CC[C@H]3[C@@H](C=CC4=CC(=O)CC[C@@H]43)[C@@H]1CC[C@@]21C=CCO1 (stereo in doubt) [Example 8, 18-Methyl-17α-(1′-propenyl)-17β-3′-oxidoestra-4,6-dien-3-one] | 1.2 | 5% | 62% | 1.78 | – | 66 nM | 112% | 1.1 nM | 12.3% | – | – | – | – | – | – | –
6 | C[C@]12CCC(=O)C=C1[C@@H]1C[C@@H]1[C@H]1[C@@H]3[C@@H]4C[C@@H]4[C@@]4(CCC(=O)O4)[C@@]3(C)CC[C@@H]12 [A, 6β,7β-15β,16β-dimethylene-3-oxo-17-pregn-4-ene-21,17β-carbolactone, reference compound] | 0.5 | – | – | 2.7 | – | – | – | – | 72.2% | – | – | – | – | 64.1% | – | –
7 | C[C@@H]1CC2=CC(=O)CC[C@@H]2[C@H]2CC[C@@]3(C)[C@@H](CC[C@@]34C=CCO4)[C@@H]21 [Example 3, 7α-Methyl-17α-(1′-propenyl)-17β-3′-oxidoestra-4-en-3-one] | 3.2 | 5% | 80.2% | 2.41 | 62 nM | 17 nM | 112% | 3.7 nM | 61.6% | – | – | – | – | – | – | –
8 | CC[C@@H]1CC2=CC(=O)CC[C@@H]2[C@H]2CC[C@@]3(C)[C@@H](CC[C@@]34C=CCO4)[C@H]12 [Example 4, 7α-Ethyl-17α-(1′-propenyl)-17β-3′-oxidoestra-4-en-3-one] | 4.1 | 5% | 62.3% | 11.75 | 130 nM | 310 nM | 82.2% | 67 nM | 65.1% | 1000 nM | 7.3 nM | 2.87 | 2.9 | – | 64 nM | –
9 | C=C[C@@H]1CC2=CC(=O)CC[C@@H]2[C@H]2CC[C@@]3(C)[C@@H](CC[C@@]34C=CCO4)[C@@H]21 [Example 5, 17α-(1′-Propenyl)-7α-vinyl-17β-3′-oxidoestra-4-en-3-one] | 2.6 | 5% | 86.8% | 2.46 | – | 57 nM | 121% | 1.2 nM | 21.9% | 1000 nM | 3.7 nM | 0.95 | 2.2 | – | 53 nM | –
10 | CC[C@]12CC[C@H]3[C@@H]([C@H](C)CC4=CC(=O)CC[C@@H]43)[C@@H]1CC[C@@]21C=CCO1 [Example 9, 7α,18-Dimethyl-17α-(1′-propenyl)-17β-3′-oxidoestra-4-en-3-one] | 1.6 | 5% | 77.9% | 3.26 | 77 nM | 38 nM | 105% | 7.1 nM | 55.9% | 1000 nM | 3 nM | 2.04 | 3.0 | – | 81 nM | –
11 | CC[C@@H]1CC2=CC(=O)CC[C@@H]2[C@H]2CC[C@@]3(CC)[C@@H](CC[C@@]34C=CCO4)[C@H]12 [Example 10, 7α-Ethyl-18-methyl-17α-(1′-propenyl)-17β-3′-oxidoestra-4-en-3-one] | 1.1 | 5% | 70.4% | 7.03 | 170 nM | 850 nM | 39.2% | 780 nM | 26.4% | 1000 nM | 9.4 nM | 6.39 | 4.1 | – | 110 nM | –
12 | C=C[C@@H]1CC2=CC(=O)CC[C@@H]2[C@H]2CC[C@@]3(CC)[C@@H](CC[C@@]34C=CCO4)[C@@H]21 [Example 11, 7α-Vinyl-18-methyl-17α-(1′-propenyl)-17β-3′-oxidoestra-4-en-3-one] | 1.3 | 5% | 88.8% | 6.24 | 170 nM | – | – | 100 nM | 29.5% | 1000 nM | 5.3 nM | 4.80 | 4.7 | – | 1300 nM | Partial agonist
13 | CC[C@]12CC[C@H]3[C@@H]([C@H](C4CC4)CC4=CC(=O)CC[C@@H]43)[C@@H]1CC[C@@]21C=CCO1 [Example 12, 7α-Cyclopropyl-18-methyl-17α-(1′-propenyl)-17β-3′-oxidoestra-4-en-3-one] | 2.0 | 5% | 70.1% | 8.51 | 210 nM | – | – | 55 nM | 30.9% | – | – | – | – | – | – | Partial agonist
14 | CC[C@]12CC[C@H]3[C@@H](C[C@@H](CO)C4=CC(=O)CC[C@@H]43)[C@@H]1CC[C@@]21C=CCO1 [Example 13, 6β-Hydroxymethylene-18-methyl-17α-(1′-propenyl)-17β-3′-oxidoestra-4-en-3-one] | 2.2 | 48.1% | 5% | 88.59 | 2100 nM | 110 nM | 98.8% | 1000 nM | 5% | 140 nM | 1000 nM | 40.27 | 1000.0 | – | 1000 nM | –
